Test results published in US20130143891A1, “Methods for Treating Methotrexate-Resistant Disorders with 10-Propargyl-10-Deazaaminopterin” (ALLOS THERAPEUTICS, INC., priority 2010, published 2013).
Entries after “also recorded” stand apart in the source; their conditions may differ. Read-outs that look alike come from different tables or passages of the source.

Columns and labels:
[1] = tested on: PC3 prostate cancer cell line; experiment: MTT cell cytotoxicity assay, PC3; type: cell-based, human; conditions: 72 h exposure, read-out: Cytotoxicity (IC50s)
Method: (§1) A panel of colon (HT29, HCT116, COLO205, HCC2998), breast (MCF7, MDA-MB-435), lung (HOP62, HOP92), ovarian (OVCAR3, IGROV1), prostate (DU145, PC3), and head and neck (SCC61, HEP2, SQ20B) human cancer cell lines was purchased from the ATCC (Rockville, Md.) and National Cancer Institute collections. […] All the data generated was the result of three separate experiments performed in duplicate. Cell viability was determined using the MTT assay, which was carried out as described previously (Hansen, 1989). Briefly, cells were seeded in 96-well plates at a density of 2×10^3 cells well^−1. […] The monolayer was suspended in 0.1 ml of DMSO and the absorbance at 560 nm was measured using a microplate reader. Positive and negative controls included wells with untreated cells or medium containing MTT with no cells, respectively. The conversion of yellow water-soluble tetrazolium MTT into purple insoluble formazan is catalyzed by mitochondrial dehydrogenases and is used to estimate the number of viable cells.

[2] = tested on: SCC61 head and neck cancer cell line; experiment: MTT cell cytotoxicity assay, SCC61; type: cell-based, human; conditions: 72 h exposure, read-out: Cytotoxicity (IC50s)
Method: as §1

[3] = tested on: DU145 prostate cancer cell line; experiment: MTT cell cytotoxicity assay, DU145; type: cell-based, human; conditions: naïve/parental, 72 h exposure, read-out: Cytotoxicity (IC50s)
Method: as §1

[4] = tested on: HT29 colon cancer cell line; experiment: MTT cell cytotoxicity assay, HT29; type: cell-based, human; conditions: 72 h exposure, read-out: Cytotoxicity (IC50s)
Method: as §1

HOP62 NSCLC cell line = experiment: MTT cell cytotoxicity assay, HOP62; type: cell-based, human; conditions: 72 h exposure, read-out: Cytotoxicity (IC50s)
Method: as §1

[5] = tested on: SQ20B head and neck cancer cell line; experiment: MTT cell cytotoxicity assay, SQ20B; type: cell-based, human; conditions: 72 h exposure, read-out: Cytotoxicity (IC50s)
Method: as §1

HOP92 NSCLC cell line = experiment: MTT cell cytotoxicity assay, HOP92; type: cell-based, human; conditions: 72 h exposure, read-out: Cytotoxicity (IC50s)
Method: as §1

[6] = tested on: HEP2 head and neck cancer cell line; experiment: MTT cell cytotoxicity assay, HEP2; type: cell-based, human; conditions: 72 h exposure, read-out: Cytotoxicity (IC50s)
Method: as §1

[7] = tested on: IGROV1 ovarian cancer cell line; experiment: MTT cell cytotoxicity assay, IGROV1; type: cell-based, human; conditions: 72 h exposure, read-out: Cytotoxicity (IC50s)
Method: as §1

[8] = tested on: COLO205 colon cancer cell line; experiment: MTT cell cytotoxicity assay, COLO205; type: cell-based, human; conditions: 72 h exposure, read-out: Cytotoxicity (IC50s)
Method: as §1

[9] = tested on: HCC2998 colon cancer cell line; experiment: MTT cell cytotoxicity assay, HCC2998; type: cell-based, human; conditions: 72 h exposure, read-out: Cytotoxicity (IC50s)
Method: as §1

[10] = tested on: MCF7 breast cancer cell line; experiment: MTT cell cytotoxicity assay, MCF7; type: cell-based, human; conditions: 72 h exposure, read-out: Cytotoxicity (IC50s)
Method: as §1

[11] = tested on: HCT116 colon cancer cell line; experiment: MTT cell cytotoxicity assay, HCT116; type: cell-based, human; conditions: 72 h exposure, read-out: Cytotoxicity (IC50s)
Method: as §1

[12] = tested on: OVCAR3 ovarian cancer cell line; experiment: MTT cell cytotoxicity assay, OVCAR3; type: cell-based, human; conditions: 72 h exposure, read-out: Cytotoxicity (IC50s)
Method: as §1

[13] = tested on: MDA-MB-435 melanoma cell line; experiment: MTT cell cytotoxicity assay, MDA-MB-435; type: cell-based, human; conditions: MDA-MB-435 (melanoma; MDA435 in table), 72 h exposure, read-out: Cytotoxicity (IC50s)
Method: as §1

DU-PDX cells = experiment: Cytotoxicity in 10-propargyl-10-deazaminopterin-adapted DU145 cells; type: cell-based, human
Method: (§2) All the data generated was the result of three separate experiments performed in duplicate. Cell viability was determined using the MTT assay, which was carried out as described previously (Hansen, 1989). Briefly, cells were seeded in 96-well plates at a density of 2×10^3 cells well^−1. Cells were incubated for 120 hours and then 0.4 mg ml^−1 of MTT dye (3-[4,5-dimethylthiazol-2-yl]-2,5-diphenyltetrazolium bromide was added for 4 hours at 37° C. The monolayer was suspended in 0.1 ml of DMSO and the absorbance at 560 nm was measured using a microplate reader. Positive and negative controls included wells with untreated cells or medium containing MTT with no cells, respectively. The conversion of yellow water-soluble tetrazolium MTT into purple insoluble formazan is catalyzed by mitochondrial dehydrogenases and is used to estimate the number of viable cells. The control value corresponding to untreated cells was taken as 100% and the viability of treated samples was expressed as a percentage of the control. IC50 values were determined as concentrations that reduced cell viability by 50%.
(§3) For single agent studies, cells were seeded and allowed to settle for 24 hours prior to treatment with increasing concentrations of 10-propargyl-10-deazaminopterin for 72 h. After incubation, the cells were allowed to recover in compound-free medium for 48 h, prior to determination of growth inhibition using the MTT assay.
(§4) To characterize the predictive factors of 10-propargyl-10-deazaminopterin antiproliferative effects, the cell lines DU-PDX and HEP-PDX were developed from parental DU145 and HEP2 cells, respectively, by exposure to stepwise increasing concentrations of 10-propargyl-10-deazaminopterin over a period of 6 months.

HEP-PDX cells = experiment: Cytotoxicity in 10-propargyl-10-deazaminopterin-adapted HEP2 cells; type: cell-based, human
Method: as §2, §3, §4

DU-MTX cells = experiment: Cytotoxicity in methotrexate-adapted DU145 cells; type: cell-based, human
Method: as §2, §3
To compare the mechanisms of 10-propargyl-10-deazaminopterin and methotrexate resistance, the cell lines DU-MTX and HEP-MTX were developed from parental DU145 and HEP2 cells by exposure to stepwise increasing concentrations of methotrexate.

[14] = tested on: 15 human solid tumor cell lines; experiment: Cytotoxicity across panel of 15 human solid tumor cell lines; type: cell-based
Method: A panel of colon (HT29, HCT116, COLO205, HCC2998), breast (MCF7, MDA-MB-435), lung (HOP62, HOP92), ovarian (OVCAR3, IGROV1), prostate (DU145, PC3), and head and neck (SCC61, HEP2, SQ20B) human cancer cell lines was purchased from the ATCC (Rockville, Md.) and National Cancer Institute collections. Cells were grown as monolayers in RPMI medium supplemented with 10% fetal calf serum, 2 mM glutamine, 100 units ml^−1 penicillin and […] streptomycin.
as §2, §3

DHFR = experiment: Western blot of DHFR protein expression; type: cell-based, human
Method: Cells were lysed in buffer containing 50 mM HEPES (pH 7.6), 150 mM NaCl, 1% Triton X-100, 2 mM sodium vanadate, 100 mM NaF, and 0.4 mg·ml^−1 phenylmethylsulfonyl fluoride. Equal amounts of protein (20-50 μg/lane) were subjected to SDS-PAGE and transferred to nitrocellulose membranes. Membranes were probed with anti-cleaved PARP, anti-cleaved caspase 3, anti-caspase 9 (Cell Signaling, Saint Quentin Yvelines, France), anti-DHFR (Abcam, France), anti-β-actin (Sigma Aldrich, Saint-Quentin Fallavier, France) specific primary antibodies followed by peroxidase-linked secondary antibodies and visualization by chemiluminescence.

HEP-MTX cells = experiment: Cytotoxicity in methotrexate-adapted HEP2 cells; type: cell-based, human; conditions: methotrexate-adapted HEP2 compared with parental cells
Method: as §2
For single agent studies, cells were seeded and allowed to settle for 24 hours prior to treatment with increasing concentrations of 10-propargyl-10-deazaminopterin for 72 h. […]

[15] = DU-PDX cells, 72 h exposure for pemetrexed and 5-FU
[16] = HEP-PDX cells, 72 h exposure for pemetrexed and 5-FU

Compound | IC50 ([1]; Homo sapiens, 72 h) [nM] | IC50 ([2]; Homo sapiens, 72 h) [nM] | IC50 ([3]; Homo sapiens, DU-145, 72 h) [nM] | IC50 ([4]; Homo sapiens, HT-29, 72 h) [nM] | IC50 (HOP62 NSCLC cell line; Homo sapiens, HOP-62, 72 h) [µM] | IC50 ([5]; Homo sapiens, SQ20B, 72 h) [µM] | IC50 (HOP92 NSCLC cell line; Homo sapiens, HOP-92, 72 h) [µM] | IC50 ([6]; Homo sapiens, HEp-2, 72 h) [nM] | IC50 ([7]; Homo sapiens, IGROV-1, 72 h) [µM] | IC50 ([8]; Homo sapiens, COLO 205, 72 h) [µM] | IC50 ([9]; Homo sapiens, HCC 2998, 72 h) [µM] | IC50 ([10]; Homo sapiens, MCF7, 72 h) [µM] | IC50 ([11]; Homo sapiens, HCT-116, 72 h) [µM] | IC50 ([12]; Homo sapiens, OVCAR-3, 72 h) [µM] | IC50 ([13]; Homo sapiens, MDA-MB-435, 72 h) [µM] | cross-resistance: cytotoxicity in DU-PDX compared with parental DU145 (DU-PDX cells; [15]) | cross-resistance: cytotoxicity in HEP-PDX compared with parental HEP2 (HEP-PDX cells; [16]) | IC50 [6] [nM] | IC50 [7] [µM] | IC50 [8] [µM] | other results
O=c1[nH]cc(F)c(=O)[nH]1 [5-FU, 5-fluorouracil] | 1500 | 1200 | 7000 | 3000 | 78 | 10 | 18 | 86000 | 8 | 0.8 | 10 | 1.3 | 10 | 31 | 5 | No significant difference | No significant difference | – | – | – | –
C[C@H]1O[C@@H](n2cc(F)c(=O)[nH]c2=O)[C@H](O)[C@@H]1O [5′-DFUR] | – | – | – | – | – | – | – | – | – | – | – | – | – | – | – | – | – | 250000 | 29 | 3.9 | IC50 [1]: 25000 nM; IC50 [2]: 3200 nM; IC50 [3]: 28000 nM; IC50 [4]: 16000 nM; IC50 (HOP62 NSCLC cell line): 380 µM; IC50 [5]: 27 µM; IC50 (HOP92 NSCLC cell line): 135 µM; IC50 [9]: 34 µM; IC50 [10]: 7.8 µM; IC50 [11]: 45 µM; IC50 [12]: 230 µM; IC50 [13]: 33 µM
C#CCC(Cc1cnc2nc(N)nc(N)c2n1)c1ccc(C(=O)N[C@@H](CCC(=O)O)C(=O)O)cc1 (mixture of isomers) [Pralatrexate, (2S)-2-[[4-[(1RS)-1-[(2,4-diaminopteridin-6-yl)methyl]but-3-ynyl]benzoyl]amino]pentanedioic acid] | – | – | – | – | – | – | – | < 100 | < 0.1 | ≥ 9 | – | – | – | – | – | – | – | 50 | 0.08 | 9 | IC50 ([3]; listed as 10-propargyl-10-deazaminopterin): 10 nM; IC50 lower than that of methotrexate (DU-MTX cells; DU-MTX cells): approximately 10 fold; IC50 (DU-MTX cells; Homo sapiens, DU-145, DU-MTX cells (FIG. 3), read-out: IC50 for the methotrexate adapted DU-145 cell lines): 20 nM; less sensitive (resistant) than parental cells (DU-PDX cells; DU-PDX versus parental DU145): more than 200 fold; change in cytotoxicity with and without verapamil and cyclosporine A (DU-PDX cells; DU-PDX, 30 μM verapamil and 3 μM cyclosporin A concomitantly for 72 hours): No changes were observed; less sensitive (resistant) than parental cells (HEP-PDX cells; HEP-PDX versus parental HEP2): more than 200 fold; change in cytotoxicity with and without verapamil and cyclosporine A (HEP-PDX cells; HEP-PDX, 30 μM verapamil and 3 μM cyclosporin A concomitantly for 72 hours): No changes were observed; IC50 ([14]; 6 of the 15 human cancer cell lines, read-out: IC50 in the 6 relatively resistant of 15 cell lines): > 9 µM; IC50s on average lower than those observed for methotrexate ([14]; average over the panel): ~10 fold; IC50 ([14]; nine of the 15 human cancer cell lines, read-out: IC50 in the nine sensitive of 15 cell lines): < 0.1 µM; DHFR protein expression after prolonged exposure (DHFR; 6 months exposure, HEP-PDX cells): not after prolonged (6 months) exposure; DHFR protein expression after short exposure (DHFR; 24 hour exposure (FIG. 6)): slightly increased
Nc1nc2[nH]cc(CCc3ccc(C(=O)N[C@@H](CCC(=O)O)C(=O)O)cc3)c2c(=O)[nH]1 [Pemetrexed, pemetrexed] | 2700 | 15 | 48 | 23 | 0.029 | 0.025 | 0.02 | 100 | 300 | 0.024 | 1.5 | 0.022 | 350 | 0.025 | 300 | – | – | – | – | – | cross-resistance: cytotoxicity in DU-PDX compared with parental DU145 (DU-PDX cells): only slightly less cytotoxic; cross-resistance: cytotoxicity in HEP-PDX compared with parental HEP2 (HEP-PDX cells): only slightly less cytotoxic
CN(Cc1cnc2nc(N)nc(N)c2n1)c1ccc(C(=O)N[C@@H](CCC(=O)O)C(=O)O)cc1 [Methotrexate] | 100 | 30 | 300 | 220 | 0.15 | 0.26 | 0.6 | 250 | 0.33 | 30 | > 350 | 300 | > 350 | > 350 | > 350 | partial cross-resistance; also recorded: insensitive | partial cross-resistance | – | – | – | increase in IC50 in methotrexate adapted DU-145 cells (DU-MTX cells; DU-MTX versus naïve DU-145): approximately 10 fold; sensitivity of DU-MTX cells (in words) (DU-MTX cells; methotrexate-adapted DU145 compared with parental/naïve cells): displayed resistance; sensitivity of HEP-MTX cells (in words) (HEP-MTX cells): displayed resistance
